Assay results as given in PMC6499206, “Quantification of Volatile Metabolites Derived From Garlic (Allium sativum) in Human Urine” (Frontiers in Nutrition, 2019).

Assay: Quantification of garlic-derived metabolites in human urine after ingestion of 3 g raw garlic (SIDA, SAFE, HRGC-MS / HRGC-GC-MS)
Type: in vivo
Conditions: for metabolite concentration in urine / metabolite concentration in urine, creatinine-normalized: 3 g raw garlic
From the text: Human urine samples were obtained from 18 volunteers (age 22–38 years, mean 27 years; 11 females, 7 males); thereby, one volunteer conducted the whole experimental series twice. At the time of examination, volunteers reported no known illness that might have potentially influenced the metabolism or the excretion of urine. The test persons were instructed to avoid foods that were rich in sulfur-containing substances at the testing day as well as 2 days preceding the testing day, namely garlic, onion, wild garlic, chives, cabbage, and leek, and were only allowed to consume the garlic sample provided in the course of the experiments. Additionally, subjects were asked to keep records of the food (including food supplements) and beverages they consumed during these 3 testing days. Generally, the overall panelists' requirements were in accordance with our previous studies ([5], [16]).
On the sampling day, the outer garlic cloves of a whole garlic bulb were peeled and cut into ~3 mm cubes by using a garlic cutter (Genius GmbH, Limburg/Lahn, Germany). Subsequently these cubes were thoroughly mixed and aliquoted into 3 g portions. Three to four test persons conducted the experiment at the same day. Each test person was asked to ingest a garlic portion of 3 g. In total, eight consecutive urine samples were provided by each test person, comprising one whole urine set. The samples were collected in sterile brown glass bottles, with sampling times as follows: one sample was provided directly prior to garlic consumption. The series of the second to eighth sample was then obtained at about 0.5, 1, 2, 4, 6, 8, and 24 h after garlic consumption, respectively. Between the first urine sample (prior to garlic consumption) and the seventh urine sample (8 h after garlic consumption) test persons only spent urine at the specific time points mentioned before. Another sample was provided at the next morning (24 h after garlic consumption). Between the samples provided 8 and 24 h after garlic consumption no urine was collected. All samples were immediately placed into a −80°C freezer and were kept frozen until further analysis.
The samples of each set were termed according to their sampling time. The following list provides the time intervals that are related to the respective sample name: • - pre: before garlic consumption • - 0.5 h post: 0.4–0.8 h after garlic consumption • - 1 h post: 0.9–1.3 h after garlic consumption • - 2 h post: 1.8 h−2.2 h after garlic consumption • - 4 h post: 3.8–4.4 h after garlic consumption • - 6 h post: 5.8–6.4 h after garlic consumption • - 8 h post: 7.8–8.4 h after garlic consumption • - 24 h post: 23.8–25.6 h after garlic consumption
A creatinine kit (Labor+Technik Eberhard Lehmann GmbH, Berlin, Germany) was used to determine the creatinine content in each urine sample. The determination principle of this kit is based on the reaction of creatinine with picric acid under basic conditions (Jaffé reaction). The formed complex was detected photometrically at a wavelength of 492 nm.
For quantification purposes, the deuterated standards ^2H3-AMS, ^2H3-AMSO, and ^2H3-AMSO2 were added to the sample and stirred for 10 min. Subsequently, DCM was added in a ratio of 1:2 (DCM/human urine; v/v) and this solution was stirred for further 30 min at room temperature. To isolate the volatile fraction from the urine samples we then applied SAFE-distillation ([17]), thereby distilling the respective samples at 50°C. After completion of the distillation process, 10 mL of DCM were applied in each case to rinse the SAFE apparatus and to ensure complete transition of the volatile compounds. This process was repeated with another 10 mL of DCM. After thawing, the obtained aqueous distillate phase was extracted three times with 25 mL DCM. The organic phases were combined, dried over anhydrous Na2SO4 and concentrated to a total volume of 100 μL by means of Vigreux distillation and subsequent micro-distillation at 50°C. […]

C=CCSC [AMS, allyl methyl sulfide]
concentration in urine compared with human milk (3 g raw garlic in both studies, milk data ref 20): comparable excretion levels in both media
metabolite concentration in urine (U I, 0.5 h post (0.55 h)): 0.9 µg/kg
metabolite concentration in urine, creatinine-normalized (U I, 0.5 h post (0.55 h)): 0.1 µg/mmol creatinine
metabolite concentration in urine (U I, 1 h post (1.03 h)): 0.7 µg/kg
metabolite concentration in urine, creatinine-normalized (U I, 1 h post (1.03 h)): 0.8 µg/mmol creatinine
metabolite concentration in urine (U I, 2 h post (2.05 h)): 1.7 µg/kg
metabolite concentration in urine, creatinine-normalized (U I, 2 h post (2.05 h)): 0.8 µg/mmol creatinine
metabolite concentration in urine (U I, 4 h post (4.05 h)): 1.6 µg/kg
metabolite concentration in urine, creatinine-normalized (U I, 4 h post (4.05 h)): 0.2 µg/mmol creatinine
metabolite concentration in urine (U I, 6 h post (6.05 h)): 1.5 µg/kg
metabolite concentration in urine, creatinine-normalized (U I, 6 h post (6.05 h)): 0.2 µg/mmol creatinine
metabolite concentration in urine (U I, 8 h post (8.05 h)): 0.7 µg/kg
metabolite concentration in urine, creatinine-normalized (U I, 8 h post (8.05 h)): 0.1 µg/mmol creatinine
metabolite concentration in urine (U I, 24 h post (25.55 h)): traces^1
metabolite concentration in urine, creatinine-normalized (U I, 24 h post (25.55 h)): traces^1
metabolite concentration in urine (U I, pre (-0.03 h)): < LOD^1
metabolite concentration in urine, creatinine-normalized (U I, pre (-0.03 h)): < LOD^1
metabolite concentration in urine (U II, 0.5 h post (0.50 h)): 0.5 µg/kg
metabolite concentration in urine, creatinine-normalized (U II, 0.5 h post (0.50 h)): 0.1 µg/mmol creatinine
metabolite concentration in urine (U II, 1 h post (1.00 h)): 0.9 µg/kg
metabolite concentration in urine, creatinine-normalized (U II, 1 h post (1.00 h)): 0.3 µg/mmol creatinine
metabolite concentration in urine (U II, 2 h post (2.00 h)): 0.5 µg/kg
metabolite concentration in urine, creatinine-normalized (U II, 2 h post (2.00 h)): 0.4 µg/mmol creatinine
metabolite concentration in urine (U II, 4 h post (4.00 h)): 0.7 µg/kg
metabolite concentration in urine, creatinine-normalized (U II, 4 h post (4.00 h)): 0.1 µg/mmol creatinine
metabolite concentration in urine (U II, 6 h post (6.00 h)): 0.4 µg/kg
metabolite concentration in urine, creatinine-normalized (U II, 6 h post (6.00 h)): 0.04 µg/mmol creatinine
metabolite concentration in urine (U II, 8 h post (8.00 h)): 0.2 µg/kg
metabolite concentration in urine, creatinine-normalized (U II, 8 h post (8.00 h)): 0.02 µg/mmol creatinine
metabolite concentration in urine (U II, 24 h post (24.12 h)): traces^1
metabolite concentration in urine, creatinine-normalized (U II, 24 h post (24.12 h)): traces^1
metabolite concentration in urine (U II, pre (-0.13 h)): < LOD^1
metabolite concentration in urine, creatinine-normalized (U II, pre (-0.13 h)): < LOD^1
metabolite concentration in urine (U III, 0.5 h post (0.53 h)): 0.6 µg/kg
metabolite concentration in urine, creatinine-normalized (U III, 0.5 h post (0.53 h)): 0.3 µg/mmol creatinine
metabolite concentration in urine (U III, 1 h post (1.07 h)): 0.6 µg/kg
metabolite concentration in urine, creatinine-normalized (U III, 1 h post (1.07 h)): 0.8 µg/mmol creatinine
metabolite concentration in urine (U III, 2 h post (2.18 h)): 1.2 µg/kg
metabolite concentration in urine, creatinine-normalized (U III, 2 h post (2.18 h)): 0.7 µg/mmol creatinine
metabolite concentration in urine (U III, 4 h post (4.35 h)): 0.8 µg/kg
metabolite concentration in urine, creatinine-normalized (U III, 4 h post (4.35 h)): 0.3 µg/mmol creatinine
metabolite concentration in urine (U III, 6 h post (6.35 h)): 0.6 µg/kg
metabolite concentration in urine, creatinine-normalized (U III, 6 h post (6.35 h)): 0.1 µg/mmol creatinine
metabolite concentration in urine (U III, 8 h post (8.43 h)): 0.4 µg/kg
metabolite concentration in urine, creatinine-normalized (U III, 8 h post (8.43 h)): 0.1 µg/mmol creatinine
metabolite concentration in urine (U III, 24 h post (23.90 h)): traces^1
metabolite concentration in urine, creatinine-normalized (U III, 24 h post (23.90 h)): traces^1
metabolite concentration in urine (U III, pre (-0.03 h)): traces^1
metabolite concentration in urine, creatinine-normalized (U III, pre (-0.03 h)): traces^1
metabolite concentration in urine (U IV, 0.5 h post (0.55 h)): 0.7 µg/kg
metabolite concentration in urine, creatinine-normalized (U IV, 0.5 h post (0.55 h)): 0.1 µg/mmol creatinine
metabolite concentration in urine (U IV, 1 h post (1.05 h)): 0.7 µg/kg
metabolite concentration in urine, creatinine-normalized (U IV, 1 h post (1.05 h)): 0.5 µg/mmol creatinine
metabolite concentration in urine (U IV, 2 h post (2.12 h)): 0.7 µg/kg
metabolite concentration in urine, creatinine-normalized (U IV, 2 h post (2.12 h)): 0.4 µg/mmol creatinine
metabolite concentration in urine (U IV, 4 h post (4.05 h)): 0.8 µg/kg
metabolite concentration in urine, creatinine-normalized (U IV, 4 h post (4.05 h)): 0.2 µg/mmol creatinine
metabolite concentration in urine (U IV, 6 h post (6.08 h)): 0.6 µg/kg
